Reference: PMC8684776, “Discovery and characterization of potent And‐1 inhibitors for cancer treatment” (Clinical and Translational Medicine, 2021)

Tests used:
And‐1 [1] = molecular target: T1, And‐1 (Homo sapiens, UniProt O75717); test: Immunoblot of And‐1 expression in IGROV1 cells; format: cell-based; settings: read-out: IC50, And‐1 expression
T1 construct: expressed in transfected cells
T1 sequence (O75717 1-1129): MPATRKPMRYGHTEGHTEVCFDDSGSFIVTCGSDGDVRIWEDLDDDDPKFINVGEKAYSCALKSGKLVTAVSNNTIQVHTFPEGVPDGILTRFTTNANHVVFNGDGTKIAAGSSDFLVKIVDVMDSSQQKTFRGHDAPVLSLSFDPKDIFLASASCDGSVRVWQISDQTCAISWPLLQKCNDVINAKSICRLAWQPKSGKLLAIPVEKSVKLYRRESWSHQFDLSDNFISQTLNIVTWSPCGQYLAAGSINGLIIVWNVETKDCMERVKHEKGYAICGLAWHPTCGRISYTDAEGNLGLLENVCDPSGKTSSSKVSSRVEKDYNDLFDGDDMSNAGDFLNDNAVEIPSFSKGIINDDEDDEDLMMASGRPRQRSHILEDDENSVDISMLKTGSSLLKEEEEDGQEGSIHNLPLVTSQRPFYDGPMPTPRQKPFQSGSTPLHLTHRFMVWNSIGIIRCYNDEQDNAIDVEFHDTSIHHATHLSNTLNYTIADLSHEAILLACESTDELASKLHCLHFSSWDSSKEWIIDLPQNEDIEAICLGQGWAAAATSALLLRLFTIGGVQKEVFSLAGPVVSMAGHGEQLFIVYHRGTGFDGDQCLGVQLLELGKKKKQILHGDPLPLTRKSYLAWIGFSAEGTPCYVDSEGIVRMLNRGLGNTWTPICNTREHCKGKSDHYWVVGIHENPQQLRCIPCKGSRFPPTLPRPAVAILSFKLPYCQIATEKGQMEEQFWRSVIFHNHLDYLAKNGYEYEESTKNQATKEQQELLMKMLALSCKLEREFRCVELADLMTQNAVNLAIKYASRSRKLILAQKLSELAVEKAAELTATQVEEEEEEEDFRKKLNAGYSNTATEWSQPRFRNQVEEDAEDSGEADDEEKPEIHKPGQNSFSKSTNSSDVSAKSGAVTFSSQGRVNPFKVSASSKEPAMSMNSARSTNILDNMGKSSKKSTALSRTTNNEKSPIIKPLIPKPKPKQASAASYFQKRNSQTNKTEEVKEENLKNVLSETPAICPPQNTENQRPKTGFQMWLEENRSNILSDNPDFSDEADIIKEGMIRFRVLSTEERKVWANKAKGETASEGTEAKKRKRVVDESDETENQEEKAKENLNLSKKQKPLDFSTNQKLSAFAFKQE
From the text: (§1) The assay was as previously described.[45]
To evaluate whether And‐1 is required for tumor survival, we examined the dependence of a broad range of tumor cells on And‐1 by using dependency score analysis from DepMap (https://depmap.org/portal/). […] To identify And‐1 specific pharmacologic inhibitor, we established an HTS assay to identify small molecules that can inhibit And‐1 by inducing its degradation. To this end, we first established two stable cell lines, HEK293T‐And‐1‐Luc expressing And‐1 protein fused to a luciferase reporter gene, and HEK293T‐Luc expressing luciferase only (Figure 1B). HEK293T‐And‐1‐Luc cells allow us to monitor And‐1 protein levels by measuring luciferase activity in a high‐throughput manner. Using these cell lines, we conducted a screening for And‐1 inhibitors against a LOPAC small molecule library by using a quantitative HTS (qHTS) as we described previously.[46]
(A) Dependency score of WDHD1/And‐1 analyzed by DepMap. […] (B) Establishment of HEK293T‐And‐1‐Luc and HEK293T‐Luc cells for the high‐throughput screen (HTS). (C) Schematic diagram of quantitative HTS (qHTS) for And‐1 inhibitors. (D) Immunoblot analyses to detect And‐1 expression in IGROV1 cells treated with resveratrol at indicated concentrations. (E) Chemical structures of resveratrol and its three analogs as indicated. (F) Left, immunoblot analyses to detect And‐1 expression in IGROV1 cells treated with And‐1 inhibitors at the indicated concentration. Right, quantification of And‐1 expression shown in the left panel.

IGROV1 CR cells = test: SRB cell viability assay, combination with cisplatin; format: cell-based, human; settings: by combination index (CI < 1 synergism)
Description: as §1
Synergy of each combination was indicated as combination index (CI) values. […] (C) Tumors of IGROV1 CR xenograft treated with control (vehicle), cisplatin (8 mg/kg/day intraperitoneally), CH3 (20 mg/kg/3days intraperitoneally), or a combination of CH3 and cisplatin for 3 weeks. Ruler scale is in centimeters. (D) Growth curves of IGROV1 CR xenografts. […] (E) IHC staining against And‐1 antibodies of tumor samples from four treated groups of mice. Scale bar: 50 μm. […] Ruler scale is in centimeters. (G) Growth curves of IGROV1 CR xenografts. […] (H) IHC staining against And‐1 antibodies of tumor samples from four treated groups of mice. Scale bar: 50 μm.

IGROV1 CR xenografts = test: Cisplatin resistant IGROV1 CR xenograft in nude mice; format: in vivo, mouse
And‐1 [2] = molecular target: T1, And‐1; test: Cellular thermal shift assay; format: binding; settings: IGROV1 cells, higher temperature, compared to DMSO

## OB1OCc2cc(/C=C/c3ccc(Cl)c(Cl)c3)ccc21 [CH3, (E)‐5‐(3,4‐dichlorostyryl)benzo[c][1,2]oxaborol‐1(3H)‐ol]
And‐1 [1]
  DC50: 2.08 µM
IGROV1 CR cells
  synergy with cisplatin to inhibit cell proliferation: significant synergy with cisplatin
IGROV1 CR xenografts
  expression of And‐1 in tumours (IHC): suppressed expression of And‐1 in tumours
IGROV1 CR xenografts; cisplatin 8 mg/kg + CH3 20 mg/kg or BZA 2 mg/kg, intraperitoneal, 3 weeks
  resistant tumour growth, combination with cisplatin vs cisplatin alone: significantly reduced resistant tumour growth
And‐1 [2]
  thermal stability of And‐1 protein: stabilized
